Earlier results on one compound are cited in patent US9012510B2, “Oleoylethanolamide based functional mesophases” (Nestec S.A., priority 2008, dated 2015).

For the data set the following is noted: Thabuis et al., Lipid Technology 2007, 19, 225.

SMILES strings stand for the structures.

As for `CCCCCCCC/C=C\CCCCCCCC(=O)NCCO` [OEA, oleoylethanolamide], the “effect of administration on food intake and gain in body mass” value was “potent and persistent decrease in food intake and gain in body mass”.
